Source: US20260242395A1, “AMINOHETEROARYL KINASE INHIBITORS” (ALLORION THERAPEUTICS INC, priority 2022, published 2026)
pIC50: −log10 of the molar value.

What was measured:
Type in all cases: biochemical
[1] = molecular target: T1, CDK1/CyclinB (Homo sapiens, UniProt P06493); assay: CDK1/CyclinB kinase inhibitory activity (Caliper mobility shift); details: enzyme 3 nM, ATP 20 μM, 28° C. 30 min; read-out: CDK1/Cyclin B1 IC50
T1 construct: purchased Millipore 14-450M
Experimental: CDK1/CyclinB kinase inhibitory activity (IC50): 5 μl of various dilutions of test compound in 1× kinase buffer (50 mM HEPES pH 7.5, 10 mM MgCl2, 2 mM DTT and 0.01% Brij-35) was mixed with 10 μL of CDK1/CyclinB (Millipore, 14-450M #, final concentration 3 nM in 1× Kinase buffer) in 384 plates and incubated at room temperature for 10 min. To initiate each reaction, 10 μL of peptide solution containing fluorescently-labeled-peptide 18(5-FAM-QSPKKG-CONH2) (GL, 114202 #, final concentration 3000 nM) and ATP (final concentration 20 μM) in 1× Kinase buffer was added to each of the wells containing test compound and CDK1/CyclinB mixture. The reaction is then allowed to proceed at 28° C. for 30 min and terminated by the addition of 25 μL stop buffer (100 mM HEPES pH 7.5, 50 mM EDTA, 0.2% Coating Reagent #3 (Perkin Elmer, 760050 #) and 0.015% Brij-35).
(§1) Following the kinase reaction, Caliper EZ reader II (Downstream voltages: −500V, Upstream voltages: −2250V, Base pressure −0.5 PSI, Screen pressure −1.2 PSI) was used to separate the phosphorylated (product) and the unphosphorylated (substrate) fluorescently-labeled peptide 18 based on their different mobility. Both substrate and product were measured and the ratio of these values were used to generate % conversion by Caliper EZ reader II. These conversion values were then transformed into % inhibition of kinase activity using the formula: % Inhibition=[(MA−X)/(MA−MI)]×100% where MA=conversion value of DMSO only controls, MI=conversion value of no enzyme controls and X=conversion value at any given compound dose. IC50 values were then calculated by plotting dose-response curves and then using the XLfit application in Excel software.

[2] = molecular target: T2, CDK9/CyclinT1 (Homo sapiens, UniProt P50750); assay: CDK9/CyclinT1 kinase inhibitory activity (Caliper mobility shift); details: enzyme 12.5 nM, ATP 10M, 28° C. 30 min; read-out: CDK9/Cyclin T1 IC50
T2 construct: purchased Millipore 14-685M
T2 sequence (P50750 whole entry): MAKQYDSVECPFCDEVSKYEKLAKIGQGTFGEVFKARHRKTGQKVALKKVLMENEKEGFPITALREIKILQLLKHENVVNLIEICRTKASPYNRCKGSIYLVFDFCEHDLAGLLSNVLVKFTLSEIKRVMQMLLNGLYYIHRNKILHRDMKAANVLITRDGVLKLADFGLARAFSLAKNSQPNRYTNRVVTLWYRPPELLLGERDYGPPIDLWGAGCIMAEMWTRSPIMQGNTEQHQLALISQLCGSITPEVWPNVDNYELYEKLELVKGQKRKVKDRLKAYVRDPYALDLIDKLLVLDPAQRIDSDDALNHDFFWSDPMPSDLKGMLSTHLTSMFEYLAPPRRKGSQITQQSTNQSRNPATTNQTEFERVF
T2 sequence (O60563 whole entry partner): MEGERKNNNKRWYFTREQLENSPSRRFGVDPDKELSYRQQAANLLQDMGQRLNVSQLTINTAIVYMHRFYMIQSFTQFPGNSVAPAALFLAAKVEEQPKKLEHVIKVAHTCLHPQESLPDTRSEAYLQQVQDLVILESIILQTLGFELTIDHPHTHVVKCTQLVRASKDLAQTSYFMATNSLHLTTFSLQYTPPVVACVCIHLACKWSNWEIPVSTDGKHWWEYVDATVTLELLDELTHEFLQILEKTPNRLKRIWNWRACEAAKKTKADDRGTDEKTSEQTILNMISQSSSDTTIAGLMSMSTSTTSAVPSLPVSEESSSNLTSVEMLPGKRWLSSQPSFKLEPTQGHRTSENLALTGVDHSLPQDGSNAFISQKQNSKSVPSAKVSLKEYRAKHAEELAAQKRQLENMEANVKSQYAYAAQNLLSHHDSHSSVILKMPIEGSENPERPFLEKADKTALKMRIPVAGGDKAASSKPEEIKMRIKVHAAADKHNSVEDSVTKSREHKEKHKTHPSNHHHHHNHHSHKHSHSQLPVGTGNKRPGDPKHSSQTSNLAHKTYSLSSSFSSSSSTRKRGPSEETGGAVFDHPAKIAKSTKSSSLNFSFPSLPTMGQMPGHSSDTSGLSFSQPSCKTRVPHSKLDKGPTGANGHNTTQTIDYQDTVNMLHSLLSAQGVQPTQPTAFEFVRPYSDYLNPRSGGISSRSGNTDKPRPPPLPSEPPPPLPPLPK
Experimental: CDK9/CyclinT1 kinase inhibitory activity (IC50): 5 μl of various dilutions of test compound in 1× kinase buffer (20 mM HEPES, pH 7.5, 10 mM MgCl2, 2 mM DTT and 0.01% Triton X-100) was mixed with 10 μL of CDK9/CyclinT1 (Millipore, 14-685M #, final concentration 12.5 nM in 1× Kinase buffer) in 384 plates and incubated at room temperature for 10 min. To initiate each reaction, 10 μL of peptide solution containing fluorescently-labeled -peptide CTD3 (5-FAM-[…], GL, SY346885 #, final concentration 3000 nM) and ATP (final concentration […]) in 1× Kinase buffer was added to each of the wells containing test compound and CDK9/CyclinT1 mixture. The reaction is then allowed to proceed at 28° C. for 30 min and terminated by the addition of 25 μL stop buffer (100 mM HEPES pH 7.5, 50 mM EDTA, 0.2% Coating Reagent #3 (Perkin Elmer, 760050 #) and 0.015% Brij-35).
as §1, with “CTD3” for “18”

[3] = molecular target: T3, CDK4/CyclinD1 (Homo sapiens, UniProt P11802); assay: CDK4/CyclinD1 kinase inhibitory activity (Caliper mobility shift); details: enzyme 20 nM, ATP 672 uM, 28° C. 30 min; read-out: CDK4/Cyclin D1 IC50
T3 construct: purchased ProQinase 0142-0143-1
T3 sequence (P11802 whole entry): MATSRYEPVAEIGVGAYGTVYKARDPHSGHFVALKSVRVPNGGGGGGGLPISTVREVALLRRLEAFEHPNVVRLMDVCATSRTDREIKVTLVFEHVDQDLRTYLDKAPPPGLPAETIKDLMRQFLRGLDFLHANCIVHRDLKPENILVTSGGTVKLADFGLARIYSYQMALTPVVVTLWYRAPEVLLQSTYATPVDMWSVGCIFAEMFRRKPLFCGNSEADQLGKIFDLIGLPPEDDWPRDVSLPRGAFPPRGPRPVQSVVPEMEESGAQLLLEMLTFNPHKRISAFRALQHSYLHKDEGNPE
T3 sequence (P24385 whole entry partner): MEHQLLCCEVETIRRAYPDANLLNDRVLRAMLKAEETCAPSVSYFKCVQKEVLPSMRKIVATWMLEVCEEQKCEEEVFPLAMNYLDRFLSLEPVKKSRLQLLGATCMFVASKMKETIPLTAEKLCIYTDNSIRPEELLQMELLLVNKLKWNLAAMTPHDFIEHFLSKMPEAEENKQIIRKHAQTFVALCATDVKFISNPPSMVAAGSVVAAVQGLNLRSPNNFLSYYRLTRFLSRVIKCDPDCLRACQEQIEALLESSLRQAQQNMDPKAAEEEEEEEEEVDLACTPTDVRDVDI
How it was run: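 Recombinant CDK4/Cyclin D1 (20 nM final) preincubated 10 min at room temperature with compound in HEPES pH 7.5 buffer with MgCl2, DTT and Triton X-100. Reaction started with 3000 nM FAM-labelled peptide and 672 uM ATP, run 30 min at 28° C, stopped with EDTA. Mobility-shift % conversion gave % inhibition, and IC50 came from dose-response fits.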

T1 sequence (P06493 whole entry): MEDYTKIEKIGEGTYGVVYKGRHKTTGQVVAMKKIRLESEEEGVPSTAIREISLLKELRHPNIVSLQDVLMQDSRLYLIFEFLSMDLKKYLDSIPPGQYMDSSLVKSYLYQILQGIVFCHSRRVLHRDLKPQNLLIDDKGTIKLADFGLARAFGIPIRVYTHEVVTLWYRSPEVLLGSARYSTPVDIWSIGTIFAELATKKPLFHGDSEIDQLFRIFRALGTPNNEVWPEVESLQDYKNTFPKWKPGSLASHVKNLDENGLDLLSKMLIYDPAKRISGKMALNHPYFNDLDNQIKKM
T1 sequence (P14635 whole entry partner): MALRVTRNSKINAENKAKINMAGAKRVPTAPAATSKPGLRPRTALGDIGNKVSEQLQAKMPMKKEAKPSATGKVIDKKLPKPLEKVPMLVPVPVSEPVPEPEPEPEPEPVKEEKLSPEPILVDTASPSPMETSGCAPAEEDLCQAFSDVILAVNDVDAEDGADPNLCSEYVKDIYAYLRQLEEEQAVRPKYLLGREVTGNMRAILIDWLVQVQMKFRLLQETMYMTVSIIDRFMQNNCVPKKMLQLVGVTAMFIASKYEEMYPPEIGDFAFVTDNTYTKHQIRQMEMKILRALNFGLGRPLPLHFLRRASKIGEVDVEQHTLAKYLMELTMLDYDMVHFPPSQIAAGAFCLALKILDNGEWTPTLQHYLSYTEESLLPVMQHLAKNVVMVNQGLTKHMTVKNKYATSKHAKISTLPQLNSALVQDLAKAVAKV

SMILES	pIC50 [1]	pIC50 [2]	pIC50 [3]
Cc1nc2c(F)cc(-c3nc(N[C@@H]4CCOC[C@H]4O)ncc3F)cc2c2c1CC1(CC1)NC2 [Example 65]	6.00 to 7.00	6.00 to 7.00	> 8.00
Cc1c(C(C)(C)O)cnc2c(F)cc(-c3nc(N[C@@H]4CCOC[C@H]4O)ncc3F)cc12 [Example 23, (3S,4R)-4-((5-fluoro-4-(8-fluoro-3-(2-hydroxypropan-2-yl)-4-methylquinolin-6-yl)pyrimidin-2-yl)amino)tetrahydro-2H-pyran-3-ol]	6.00 to 7.00	6.00 to 7.00	> 8.00
Cc1nc2c(F)cc(-c3nc(N[C@@H]4CCOC[C@H]4O)ncc3Cl)cc2c(Cl)c1C(C)O (single isomer, unassigned) [Example 35b]	≤ 6.00	≤ 6.00	> 8.00
Cc1c(C(C)(C)O)cnc2c(C)cc(-c3nc(N[C@@H]4CCOC[C@H]4O)ncc3Cl)cc12 [Example 58]	≤ 6.00	≤ 6.00	> 8.00
O[C@@H]1COCC[C@H]1Nc1ncc(Cl)c(-c2cc(F)c3c(c2)N2CCNC[C@@H]2CO3)n1 [Example 19, (3S,4R)-4-((5-chloro-4-((R)-7-fluoro-1,2,3,4,4a,5-hexahydrobenzo[b]pyrazino[1,2-d][1,4]oxazin-9-yl)pyrimidin-2-yl)amino)tetrahydro-2H-pyran-3-ol]	7.00 to 8.00	7.00 to 8.00	> 8.00
Cc1nc2c(F)cc(-c3nc(N[C@@H]4CCOC[C@H]4O)ncc3Cl)cc2cc1C(C)NC1CC1 (single isomer, unassigned) [Example 73b]	6.00 to 7.00	6.00 to 7.00	> 8.00
CC(C)(O)c1cnc2c(F)cc(-c3nc(N[C@@H]4CCOC[C@H]4O)ncc3Cl)cc2c1Cl [Example 17, (3S,4R)-4-((5-chloro-4-(4-chloro-8-fluoro-3-(2-hydroxypropan-2-yl)quinolin-6-yl)pyrimidin-2-yl)amino)tetrahydro-2H-pyran-3-ol]	6.00 to 7.00	6.00 to 7.00	> 8.00
CC1(C)Cc2cnc3c(F)cc(-c4nc(N[C@@H]5CCOC[C@H]5O)ncc4Cl)cc3c2CN1 [Example 30]	6.00 to 7.00	7.00 to 8.00	> 8.00
CC(C)(O)c1cnc2c(F)cc(-c3nc(Nc4ccc(-c5c[nH]cn5)cn4)ncc3F)cc2c1Cl [Example 52]	≤ 6.00	≤ 6.00	> 8.00
Cc1nc2c(F)cc(-c3nc(N[C@@H]4CCOC[C@H]4O)ncc3F)cc2c(C)c1C(C)O (single isomer, unassigned) [Example 81a]	6.00 to 7.00	7.00 to 8.00	> 8.00
O[C@@H]1COCC[C@H]1Nc1ncc(F)c(-c2cc(F)c3ncc4c(c3c2)CNC2(CC2)C4)n1 [Example 56]	7.00 to 8.00	7.00 to 8.00	> 8.00
Cc1nc2c(F)cc(-c3nc(N[C@@H]4CCOC[C@H]4O)ncc3Cl)cc2cc1C1CCCN1 (single isomer, unassigned) [Example 57a]	6.00 to 7.00	6.00 to 7.00	> 8.00
CC1(C)Cc2cnc3c(F)cc(-c4nc(N[C@@H]5CCOC[C@H]5O)ncc4C#N)cc3c2CN1 [Example 49]	≤ 6.00	6.00 to 7.00	> 8.00
Cc1[nH]cnc1-c1cnc2c(F)cc(-c3nc(N[C@@H]4CCOC[C@H]4O)ncc3Cl)cc2c1 [Example 18, (3S,4R)-4-((5-chloro-4-(8-fluoro-3-(5-methyl-1H-imidazol-4-yl)quinolin-6-yl)pyrimidin-2-yl)amino)tetrahydro-2H-pyran-3-ol]	6.00 to 7.00	≤ 6.00	> 8.00
CNC(C)c1cc2cc(-c3nc(N[C@@H]4CCOC[C@H]4O)ncc3Cl)cc(F)c2nc1C (single isomer, unassigned) [Example 45a]	6.00 to 7.00	6.00 to 7.00	> 8.00
CC(C)(O)c1cnc2c(F)cc(-c3nc(N[C@@H]4CCOC[C@H]4O)ncc3C#N)cc2c1Cl [Example 41]	≤ 6.00	≤ 6.00	> 8.00
O[C@@H]1COCC[C@H]1Nc1ncc(Cl)c(-c2cc(F)c3ncc4c(c3c2)CNCC4)n1 [Example 9, (3S,4R)-4-((5-chloro-4-(7-fluoro-1,2,3,4-tetrahydrobenzo[c][2,6]naphthyridin-9-yl)pyrimidin-2-yl)amino)tetrahydro-2H-pyran-3-ol]	6.00 to 7.00	6.00 to 7.00	> 8.00
O[C@@H]1COCC[C@H]1Nc1ncc(Cl)c(-c2cc(F)c3ncc4c(c3c2)C2CCC(C4)N2)n1 (single isomer, unassigned) [Example 20b]	6.00 to 7.00	6.00 to 7.00	> 8.00
[2H]C([2H])([2H])C(O)(c1cc2cc(-c3nc(N[C@@H]4CCOC[C@H]4O)ncc3Cl)cc(F)c2nc1C)C([2H])([2H])[2H] [Example 60, (3S,4R)-4-((5-chloro-4-(8-fluoro-3-(2-hydroxypropan-2-yl-1,1,1,3,3,3-d6)-2-methylquinolin-6-yl)pyrimidin-2-yl)amino)tetrahydro-2H-pyran-3-ol]	≤ 6.00	6.00 to 7.00	> 8.00
O[C@@H]1COCC[C@H]1Nc1ncc(Cl)c(-c2cc(F)c3ncc4c(c3c2)CCNC4)n1 [Example 8, (3S,4R)-4-((5-chloro-4-(7-fluoro-1,2,3,4-tetrahydrobenzo[c][2,7]naphthyridin-9-yl)pyrimidin-2-yl)amino)tetrahydro-2H-pyran-3-ol]	7.00 to 8.00	7.00 to 8.00	> 8.00
CC1(C)NCc2c(cnc3c(F)cc(-c4nc(N[C@@H]5CCOC[C@H]5O)ncc4F)cc23)C1O (single isomer, unassigned) [Example 106b]	6.00 to 7.00	6.00 to 7.00	> 8.00
Cc1nc2c(F)cc(-c3nc(N[C@@H]4CCOC[C@H]4O)ncc3Cl)cc2c(Cl)c1C(C)O (single isomer, unassigned) [Example 35a]	6.00 to 7.00	6.00 to 7.00	> 8.00
CC(C)n1c(C(C)(C)O)nc2c(F)cc(-c3cc(N[C@@H]4CCOC[C@H]4O)ncc3Cl)cc21 [Example 12, (3S,4R)-4-((5-chloro-4-(4-fluoro-2-(2-hydroxypropan-2-yl)-1-isopropyl-1H-benzo[d]imidazol-6-yl)pyridin-2-yl)amino)tetrahydro-2H-pyran-3-ol]	≤ 6.00	6.00 to 7.00	7.00 to 8.00
Cc1nc2c(F)cc(-c3nc(N[C@@H]4CCOC[C@H]4O)ncc3Cl)cc2c(C)c1[C@@H](C)O (single isomer, unassigned) [Example 15a]	6.00 to 7.00	6.00 to 7.00	> 8.00
[2H]c1nc2c(F)cc(-c3nc(N[C@@H]4CCOC[C@H]4O)ncc3Cl)cc2c2c1CC(C)(C)NC2 [Example 100]	6.00 to 7.00	7.00 to 8.00	> 8.00
